How the values were obtained:
Type in all cases: biochemical
syn-TKT [1] = molecular target: T1, syn-TKT (Synechocystis sp. PCC 6803, UniProt P73282); assay: alcohol dehydrogenase-coupled NADH assay, inhibition; details: 1 mM AMP, glycylglycine pH 7.5, thiamine pyrophosphate, Mg2+
T1 construct: gene tktA; recombinant from genomic DNA, pET-28a(+), E. coli BL21, HisTrap purified
T1 sequence (P73282 1-670): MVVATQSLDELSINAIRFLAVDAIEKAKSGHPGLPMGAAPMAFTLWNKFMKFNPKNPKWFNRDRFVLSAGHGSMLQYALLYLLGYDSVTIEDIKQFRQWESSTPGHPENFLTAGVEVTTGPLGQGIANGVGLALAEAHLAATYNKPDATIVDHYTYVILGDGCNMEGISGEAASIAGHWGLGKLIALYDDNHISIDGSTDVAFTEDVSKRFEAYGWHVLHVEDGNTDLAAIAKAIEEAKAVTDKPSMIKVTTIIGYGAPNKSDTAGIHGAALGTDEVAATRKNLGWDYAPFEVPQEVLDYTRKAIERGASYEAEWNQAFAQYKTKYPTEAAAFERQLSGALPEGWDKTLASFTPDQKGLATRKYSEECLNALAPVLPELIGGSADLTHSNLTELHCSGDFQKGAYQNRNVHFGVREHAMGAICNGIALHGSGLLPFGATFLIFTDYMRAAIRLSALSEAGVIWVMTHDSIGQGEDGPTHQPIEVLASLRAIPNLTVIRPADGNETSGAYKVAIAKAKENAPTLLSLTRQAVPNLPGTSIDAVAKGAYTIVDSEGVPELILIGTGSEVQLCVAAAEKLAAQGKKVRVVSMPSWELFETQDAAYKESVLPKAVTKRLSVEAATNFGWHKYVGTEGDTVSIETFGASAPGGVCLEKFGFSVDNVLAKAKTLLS

syn-TKT [2] = molecular target: T1, syn-TKT; assay: alcohol dehydrogenase-coupled NADH consumption at […] nm; details: 100 mM L-erythrulose, 2 mM thiamine pyrophosphate, 5 mM MgCl2, 100 mM glycylglycine pH 7.5; no added metabolite
cn-TKT [3] = molecular target: T2, cn-TKT (Cupriavidus necator, UniProt P21726); assay: as above; details: 100 mM L-erythrulose, 2 mM thiamine pyrophosphate, 5 mM MgCl2, 100 mM glycylglycine pH 7.5; no added metabolite
T2 construct: gene cbbTP; recombinant from genomic DNA, pET-28a(+), E. coli BL21, HisTrap purified
T2 sequence (P21726 1-670): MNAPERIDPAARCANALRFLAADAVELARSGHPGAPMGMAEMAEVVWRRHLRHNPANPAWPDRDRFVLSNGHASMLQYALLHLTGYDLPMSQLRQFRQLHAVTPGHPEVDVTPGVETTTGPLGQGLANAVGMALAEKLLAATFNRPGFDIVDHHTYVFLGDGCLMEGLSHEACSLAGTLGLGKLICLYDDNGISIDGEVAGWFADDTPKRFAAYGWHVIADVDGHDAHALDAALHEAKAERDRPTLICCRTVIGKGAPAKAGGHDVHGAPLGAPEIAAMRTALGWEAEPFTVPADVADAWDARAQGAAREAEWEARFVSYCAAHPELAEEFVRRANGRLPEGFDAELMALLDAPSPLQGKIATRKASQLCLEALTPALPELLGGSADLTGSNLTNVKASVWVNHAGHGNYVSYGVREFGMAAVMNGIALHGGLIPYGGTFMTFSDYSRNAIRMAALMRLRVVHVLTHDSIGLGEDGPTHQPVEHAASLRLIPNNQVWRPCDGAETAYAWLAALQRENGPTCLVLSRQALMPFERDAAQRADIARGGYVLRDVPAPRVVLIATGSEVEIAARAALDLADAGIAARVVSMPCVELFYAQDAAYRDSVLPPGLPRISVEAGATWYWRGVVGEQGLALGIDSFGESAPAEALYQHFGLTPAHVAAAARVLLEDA

syn-F/SBPase [4] = molecular target: T3, syn-F/SBPase (Synechocystis sp. PCC 6803, UniProt P73922, R194H); assay: Malachite Green phosphate release, activation; details: substrate fructose-1,6-bisphosphate; AMP-insensitive variant
T3 construct: gene slr2094; recombinant, codon-optimised, pET-28a(+), E. coli BL21, HisTrap purified; homotetramer
T3 sequence (P73922 whole entry R194H): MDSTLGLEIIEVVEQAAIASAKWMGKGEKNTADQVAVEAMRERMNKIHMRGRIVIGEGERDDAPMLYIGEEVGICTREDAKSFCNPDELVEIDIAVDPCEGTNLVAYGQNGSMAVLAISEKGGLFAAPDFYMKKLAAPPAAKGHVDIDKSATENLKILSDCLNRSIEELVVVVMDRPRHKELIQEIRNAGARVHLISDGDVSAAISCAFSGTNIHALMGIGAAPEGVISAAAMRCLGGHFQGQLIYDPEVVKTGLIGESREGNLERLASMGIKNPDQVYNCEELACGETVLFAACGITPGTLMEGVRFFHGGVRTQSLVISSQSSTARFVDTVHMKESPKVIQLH

syn-F/SBPase [5] = molecular target: T3, syn-F/SBPase; assay: Malachite Green phosphate release, inhibition; details: substrate fructose-1,6-bisphosphate; AMP-insensitive variant
cn-TKT [6] = molecular target: T2, cn-TKT; assay: alcohol dehydrogenase-coupled NADH assay, inhibition; details: 1 mM dihydroxyacetone phosphate, glycylglycine pH 7.5, thiamine pyrophosphate, Mg2+
cn-F/SBPase = molecular target: T4, cn-F/SBPase (Cupriavidus necator, UniProt P19912); assay: Malachite Green phosphate release, Hill fit; details: 50 mM Tris-HCl, 15 mM MgCl2, 10 mM DTT, 30 °C; no added metabolite
T4 construct: gene fbp3; recombinant, codon-optimised, pET-28a(+), E. coli BL21, HisTrap purified
T4 sequence (P19912 1-364): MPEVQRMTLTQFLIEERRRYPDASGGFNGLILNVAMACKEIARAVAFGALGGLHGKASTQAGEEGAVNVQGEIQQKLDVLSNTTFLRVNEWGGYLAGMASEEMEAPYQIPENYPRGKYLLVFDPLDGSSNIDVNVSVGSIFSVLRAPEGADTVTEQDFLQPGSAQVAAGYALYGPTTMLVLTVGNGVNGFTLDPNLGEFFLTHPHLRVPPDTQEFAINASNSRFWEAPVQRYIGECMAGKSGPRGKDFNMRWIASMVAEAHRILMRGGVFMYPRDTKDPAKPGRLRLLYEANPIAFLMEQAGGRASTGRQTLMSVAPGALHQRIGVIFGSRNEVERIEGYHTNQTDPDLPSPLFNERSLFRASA

syn-F/SBPase [7] = molecular target: T5, syn-F/SBPase (Synechocystis sp. PCC 6803, UniProt P73922); assay: Malachite Green phosphate release, Hill fit; details: 50 mM Tris-HCl, 15 mM MgCl2, 10 mM DTT, 30 °C; no added metabolite
T5 construct: gene slr2094; recombinant, codon-optimised, pET-28a(+), E. coli BL21, HisTrap purified; homotetramer
T5 sequence (P73922 1-345): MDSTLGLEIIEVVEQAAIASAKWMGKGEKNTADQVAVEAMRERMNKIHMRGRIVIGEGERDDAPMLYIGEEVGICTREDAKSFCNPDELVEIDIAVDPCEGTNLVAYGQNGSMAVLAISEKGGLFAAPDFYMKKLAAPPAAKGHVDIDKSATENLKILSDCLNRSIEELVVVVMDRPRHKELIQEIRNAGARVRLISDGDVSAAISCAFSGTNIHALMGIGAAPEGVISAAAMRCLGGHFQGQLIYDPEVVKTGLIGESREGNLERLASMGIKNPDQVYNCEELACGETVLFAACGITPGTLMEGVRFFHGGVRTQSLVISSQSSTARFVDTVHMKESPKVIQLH

In the case of `Nc1ncnc2c1ncn2[C@@H]1O[C@H](COP(=O)(O)O)[C@@H](O)[C@H]1O` [AMP], the “alcohol dehydrogenase-coupled NADH assay, inhibition” value (syn-TKT [1]) is reported as “AMP and dihydroxyacetone phosphate, which specifically reduced the activity of syn-TKT and cn-TKT, respectively”.
In the case of `O=P(O)(O)OC[C@H]1OC(O)[C@H](O)[C@@H]1O` (stereo partly drawn) [D-ribose-5-phosphate], the KM (syn-TKT [2]) is reported as “conversion of D-ribose-5-phosphate and L-erythrulose to sedoheptulose-7-phosphate and glycolaldehyde was measured” and the KM (cn-TKT [3]) is reported as “conversion of D-ribose-5-phosphate and L-erythrulose to sedoheptulose-7-phosphate and glycolaldehyde was measured”.
In the case of `O=C[C@H](O)COP(=O)(O)O` [GAP, glyceraldehyde-3-phosphate], the “Malachite Green phosphate release, activation” value (syn-F/SBPase [4]) is reported as “This mutant lost AMP sensitivity but retained sensitivity to both GAP activation and NADPH inhibition”.
`NC(=O)C1=CN([C@@H]2O[C@H](COP(=O)(O)OP(=O)(O)OC[C@H]3O[C@@H](n4cnc5c(N)ncnc54)[C@H](OP(=O)(O)O)[C@@H]3O)[C@@H](O)[C@H]2O)C=CC1` [NADPH] was tested, and the “Malachite Green phosphate release, inhibition” value (syn-F/SBPase [5]) was “This mutant lost AMP sensitivity but retained sensitivity to both GAP activation and NADPH inhibition”.
In the case of `O=C(CO)COP(=O)(O)O` [dihydroxyacetone phosphate], the “alcohol dehydrogenase-coupled NADH assay, inhibition” value (cn-TKT [6]) is reported as “AMP and dihydroxyacetone phosphate, which specifically reduced the activity of syn-TKT and cn-TKT, respectively”.
With `O=P(O)(O)OC[C@H]1OC(O)(COP(=O)(O)O)[C@@H](O)[C@@H]1O` (some centres unmarked) [fructose-1,6-bisphosphate] the KM (cn-F/SBPase) was “Initial rates of syn-F/SBPase and cn-F/SBPase were measured at different substrate concentrations” and the KM (syn-F/SBPase [7]) was “activity on the substrate fructose-1,6-bisphosphate was screened using Malachite Green (MG) detection”.
